{"source": "patent US9884863B2", "about": "“STAT3 inhibitor” (Board of Regents, The University of Texas System, priority 2013, dated 2018)", "key": {"MCF-7": {"system": "MCF-7", "assay": "MTS cell proliferation assay, MCF-7", "type": "cell-based, human", "conditions": "Homo sapiens, MCF7, 72 h, read-out: IC50 MCF-7 (Table 4)", "method_in_brief": "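MCF-7 human breast cancer cells were exposed to test compounds at a range of concentrations, then proliferation was measured with the MTS reagent from Promega's CellTiter 96 AQueous Non-Radioactive Cell Proliferation Assay kit. After 1 hr at 37° C., OD at 550 nm was read on a 96-well iMark Microplate Absorbance Reader, with quadruplicate wells per concentration.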"}, "MDA-MB-231": {"system": "MDA-MB-231", "assay": "MTS cell proliferation assay, MDA-MB-231", "type": "cell-based, human", "conditions": "Homo sapiens, MDA-MB-231, 72 h, read-out: IC50 MDA-MB-231 (Table 4)", "method_in_brief": "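Cells are exposed to DMSO or STAT3 inhibitors at 0.01-100 μM for 72 h, or at 1, 5 and 10 μM. Proliferation is read by MTS absorbance at 550 or 560 nm after 1 h at 37 °C. Each concentration is run in quadruplicate wells.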"}, "[1]": {"system": "STAT family, STAT3-dependent genes and JAKs in MDA-MB-231 cells", "assay": "Western blot analysis, MDA-MB-231 cells", "type": "cell-based, human", "conditions": "24 h; Example 3 numbering", "experimental": "Blocking STAT3 signaling in many different tumor cells leads to induce growth arrest and apoptosis (Turkson, J. et al., 2000; Bromberg, J., 2002; Zhang, X. et al., 2012).\nWestern Blot Analysis. Protein levels were determined by Western blot using the previously described methods (Shen, Q. et al., 2008). Total cell lysates were prepared from MDA-MB-231 cells. Protein concentrations were measured using the BCA Protein Assay Reagent (Pierce, Rockford, Ill., USA). Equal amounts of total cellular protein extract (40 μg) were resuspended in denaturing sample loading buffer (0.5 M Tris-HCl, pH 6.8, 10% SDS, 0.1% bromophenol blue, and 20% glycerol), separated by electrophoresis on a 10% polyacrylamide SDS-PAGE gel and then electrophoretically transferred to a nitrocellulose membrane (Thermo Scientific, Ill., USA) at 100 Volts for 1 h at 4° C. The membrane was then incubated in a blocking solution containing 5% non-fat milk and 1% Tween 20 in TBS for 1 h. The membrane was then incubated with antibodies specific for: phospho-STAT3-pY705 (1:3000, Epitomics, #2236-1), STAT3 (1:2000, Cell Signaling, #4904), Caspase-3-cleaved (1:2000, Epitomics, #1476-1), Cyclin D1 (1:10000, Epitomics, #2261-1) and β-actin (1:10000, Sigma, clone AC-15). An anti-rabbit or anti-mouse secondary antibody (Amersham, Piscataway, N.J.) was used at 1:4000 dilution. The Western blotted bands were visualized using ECL procedure according to the manufacturer's instructions (Amersham)."}, "[2]": {"system": "STAT3 and pSTAT3 in MDA-MB-231 xenograft tumors", "assay": "IHC and Western blot of xenograft tumors", "type": "in vivo, mice", "conditions": "oral gavage 14 days", "text": "Immunohistochemistry (IHC): Paraffin blocks of the collected tissue were sectioned into 4 μm thickness and stained with H&E as a reference. All slides were subjected to phospho-STAT3 (Y705) IHC with ABC staining method. Rabbit or mouse IgG ABC kit was purchased from Vector Laboratories (Burlingame, Calif., USA) and ABC staining reagents were purchased from Sigma Aldrich (Louis, Mo., USA). PBS was used instead of primary antibody as a negative control."}}, "data": [{"smiles": "O=C(Nc1ccc([N+](=O)[O-])cc1Cl)c1cc(Cl)ccc1O", "note": "[niclosamide, reference compound]", "values": [{"measurement": "IC50", "setting": "MCF-7", "result": 1060, "unit": "nM"}, {"measurement": "IC50", "setting": "MDA-MB-231", "result": 790, "unit": "nM"}, {"measurement": "phosphorylated STAT3 at Tyr-705 (Example 3)", "setting": "[1]", "result": "suppressed"}, {"measurement": "total STAT3 level (Example 3)", "setting": "[1]", "result": "reduced"}, {"measurement": "STAT3 and pSTAT3 (Y705 and S727) in tumor lysates, Western blot", "setting": "[2]", "result": "decreased"}]}]}
